Key:
A549 = experiment: MTT cytotoxicity test, A549 (human lung cancer); format: cell-based; conditions: continuous incubation over 72 h, test MTT
Source text: MTT assay is a colorimetric assay used to measure proliferation, viability and cytotoxicity of cells. It consists in decomposition of a yellow tetrazolium salt MTT (4,5-dimethyl-2-thiazolyl)-2,5-diphenyltetrazolium bromide) to the water-insoluble purple dye formazan by mitochondrial enzyme succinate-tetrazolium reductase 1. MTT reduction occurs only in living cells. Data analysis consists in determining IC50 concentration of the protein (in ng/ml), at which the 50% reduction in the number of cells occurs in the population treated compared to control cells. Results were analyzed using GraphPad Prism 5.0 software. The test was performed according to the literature descriptions (Cells, J E, (1998). Cell Biology, a Laboratory Handbook, second edition, Academic Press, San Diego; Yang, Y., Koh, L W, Tsai, J H., (2004); Involvement of viral and chemical factors with oral cancer in Taiwan, Jpn J Clin Oncol, 34 (4), 176-183). Cell culture medium was diluted to a defined density (10^4-10^5 cells per 100 μl). Then 100 μl of appropriately diluted cell suspension was applied to a 96-well plate in triplicates. Thus prepared cells were incubated for 24 h at 37° C. in 5% or 10% CO2, depending on the medium used, and then to the cells (in 100 μl of medium) further 100 μl of the medium containing various concentrations of tested proteins were added. In the case of combination hTRAIL114-281 and p21WAF effector protein, 100 μl of the medium containing mixture of hTRAIL114-281 and p21WAF effector protein in molar ratio 1:1 was added. After incubation of the cells with tested proteins over the period of next 72 hours, which is equivalent to 3-4 times of cell division, the medium with the test protein was added with […] of MTT working solution [5 mg/ml], and incubation was continued for 3 h at 37° C. in 5% CO2. Then the medium with MTT solution was removed, and formazan crystals were dissolved by adding 100 μl of DMSO. After stirring, the absorbance was measured at 570 nm (reference filter 690 nm). […]

[1] = test system: human colon cancer HCT116; experiment: HCT116 colon cancer xenograft in Crl:CD1-Foxn1^nu 1 mice; format: in vivo; conditions: HCT116, Crl:CD1-Foxn1^nu 1 mice
Description: Antitumor activity of protein preparations was tested in a mouse model of human colon cancer HCT116, human colon cancer Colo205, human colon cancer model SW620, human liver cancer model HepG2, and human lung cancer models NCI-H460 and NCI-H460-Luc2.
The HCT116 (in mice Crl:CD1-Foxn1^nu 1), Colo205, NCI-H460, NCI-H460-Luc2 cells were maintained in RPMI 1640 medium (Hyclone, Logan, Utah, USA) mixed in the ratio of 1:1 with Opti-MEM (Invitrogen, Cat.22600-134) supplemented with 10% fetal calf serum and 2 mM glutamine. On the day of mice grafting, the cells were detached from the support by washing the cells with trypsin (Invitrogen), then the cells were centrifuged at 1300 rpm, 4° C., 8 min., suspended in HBSS buffer (Hanks medium), counted and diluted to the concentration of 25×10^6 cells/ml.
Examination of antitumor activity of proteins of the invention was conducted on 7-9 week-old CD-nude (Crl:CD1-Foxn1^nu 1) or 4-6 week-old Crl:SHO-Prkdc^scidHr^hr mice obtained from Charles River Germany. Mice were kept under specific pathogen-free conditions with free access to food and demineralised water (ad libitum). All experiments on animals were carried in accordance with the guidelines: “Interdisciplinary Principles and Guidelines for the Use of Animals in Research. […]

rhTRAIL114-281: recombinant human soluble TRAIL, amino acids 114-281 of hTRAIL, used as the comparative reference
A549 IC50 (A549): >10 µg/mL
tumor growth inhibition (TGI) relative to the control ([1]; 10 mg/kg i.v. daily for ten days, 31th day): 21.8%
tumor growth inhibition (TGI) relative to the control ([1]; 10 mg/kg i.v., 10 daily applications with a two-day break after the first 5, 27th day): 44%

Reference: US20140031283A1, “ANTICANCER FUSION PROTEIN” (ADAMED SP. Z O.O., priority 2011, published 2014)
